Marks after values point to notes of the source that are not given here.
Key:
Format in all cases: cell-based
eIF4E = eIF4E inhibitor screen: luciferase under FGF 5′UTR in FaDu cells (highly cap-dependent translation); settings: for inhibition of highly cap-dependent translation (summary statement): summary in the disclosure
Excerpt: Since highly cap-dependent translation is associated with synthesis of proteins involved in cancer, a compound that inhibits this pathway may be used as an anti-cancer agent. The assay was developed by cloning the highly structured 5′ UTR of FGF, which requires high levels of eIF4E before protein synthesis can initiate, into the proper orientation of the reporter gene luciferase, and then stably transfecting the modified luciferase gene into the cell line FaDu that is known to have high levels of eIF4E. The activity of luciferase is then monitored in the presence and absence of the tested compound.
Generation of Stable Cell Lines: The pMS110 plasmid (pGL3-control plasmid from Promega which contains a neo selectable marker) was used to generate pMS110-5′UTR by cloning the 5′ UTR of FGF just upstream of the luciferase AUG start codon. FaDu cells, a head and neck cancer cell line, were transfected using Lipofectamine2000 (Invitrogen). Twenty-four hours after transfection G418 was added at 500 μg/ml. Cells were maintained in G418 for 14 days, and then individual colonies were transferred to a 96-well plate for propagation. Individual clones were analyzed for luciferase expression by plating 10^4 cells per well in a 96-well plate for 24 hours before lysing the cells and analyzing for luciferase activity in a Victor III (Perkin Elmer) or Lucy2 (Rosys Anthos). FaDu9000 and FaDuUTR were the clones that expressed the highest level of active luciferase following transfection of pMS110 and pMS110-5′UTR, respectively.
Analysis of Rapamycin Responsiveness: Cells of FaDu9000 and FaDuUTR were plated at 1×10^4 cells/well in a 96-well dish. Twenty-four hours after plating, 0.1% DMSO (vehicle control) or 10 nM rapamycin were added to each well, and the cells were maintained for an additional 24 or 48 hours. The cells were then lysed and luciferase activity was determined using BriteGlo (Promega) as per manufacturer's instruction and recorded using the Victor III. Following subtraction of background activity, the mean value of quadruplicate samples for a given experiment was determined, and the treated cells were normalized to the control. At least four separate experiments were conducted, and the mean and standard error were calculated. To determine if rapamycin affected cell viability, an MTS assay (Cell Proliferation One Solution, Promega) was carried out on each population at 48 hours in two separate experiments.
The FaDu cell line stably transfected with FGF 5′UTR was used to screen thirty-nine representative compounds, each at a concentration of 1.0 μM. Additional cells were treated with vehicle, 0.3% DMSO. Cells were plated for twenty-four hours in a 96-well plate. Each compound was then added to triplicate wells, and the cells were incubated for forty-eight hours before measuring luciferase activity as above. The mean luciferase activity was measured using Promega's Brite-Glo kit, and the mean for each sample was normalized to DMSO. The experiment was then repeated, and the average and standard deviation of the two experiments were determined (FIG. 8).

[1] = test system: Human umbilical vein endothelial cells (HUVEC); test: LDH release cytotoxicity in HUVEC; settings: human, 48 h, 10 μM
[2] = test system: vascular smooth muscle cells (VSMC); test: Trypan blue viability count in VSMC; settings: rat, 48 h, 10 μM
[3] = test system: human proximal tubule (HPT) cells; test: Ethidium homodimer (EthHD) uptake toxicity assay in HPT cells; settings: 10 μM, 48 h, relative to vehicle
AP-1 = test: PMA-induced AP-1 luciferase expression in HEK cells
NF-κB = test: TNF-α-induced NF-κB-dependent luciferase expression in HEK cells; design: NF-κB % inhibition: concentration or dose not given beside the values

Compound: COc1ccc(-n2c(-c3sc(Nc4ccc(Cl)cc4)nc3-c3ccccc3)nc3ccccc3c2=O)cc1 [Example 225, 2-[2-(4-Chloro-phenylamino)-4-phenyl-thiazol-5-yl]-3-(4-methoxyphenyl)-3H-quinazolin-4-one]
- inhibition of highly cap-dependent translation (summary statement) (eIF4E): capable of inhibiting

Compound: CNc1nc(C)c(-c2nc3ccccc3c(=O)n2-c2ccc(Cl)cc2)s1 [Example 244, 2-(4-Methyl-2-methylamino-thiazol-5-yl)-3-(4-chloro-phenyl)-3H-quinazolin-4-one]
- LDH release % Increase HUVEC [1]: 124# %
- Viable Cells % Decrease VSMC [2]: 70# %
- Cell Death (EthHD) % Increase HPT [3]: 180# %
- AP-1 % inhibition (AP-1; PMA-induced, compound added 1 h before inducer, luciferase 24 h later, normalized to DMSO vehicle): 87** %
- NF-κB % inhibition (NF-κB; TNF-α-induced, compound added 1 h before inducer, luciferase 24 h later, normalized to DMSO vehicle): 0%

Compound: Bis-[2-(4-Chloro-phenylamino)-4-benzayl-thiazole-5-yl]-methanone [Example 134]
- AP-1 inhibition @ 1 uM (AP-1; 1 uM, luciferase in HEK/AP-1 cells, as described in Example 398): 72.77
- luciferase expression under the control of the FGF 5′UTR (eIF4E; 1.0 μM, 48 h, FaDu UTR cells, normalized to DMSO (FIG. 8)): inhibited luciferase expression
- inhibition of luciferase activity (FGF 5′UTR) (eIF4E; highest concentration tested): > 60%
- inhibition of highly cap-dependent translation (summary statement) (eIF4E): capable of inhibiting
- IC50 (NF-κB; 20 ng/ml TNF-α, 24 hr (FIG. 15), read-out: IC50, TNF-α induced NF-κB gene expression): < 100 nM
- NFkB inhibition @ 1 uM (NF-κB; 1 uM, luciferase in HEK/NF-κB cells, as described in Example 398): 67.87

— patent US8829014B2, “Thiazole and thiophene analogues, and their use in treating autoimmune diseases and cancers” (Board of Supervisors of Louisiana State University and …, priority 2006, dated 2014)
